System: pig skin stratum corneum
Assay: In vitro measurement of stratum corneum extensibility (linear extensometer)
Conditions: 44% relative humidity; for Extensibility ratio: ratio of force/extension slopes before and after treatment, 2% extension at 20mm/min, application 4µl/cm² (25ng), mean ± standard deviation, ratio >1 = increased extensibility
Text: The benefits of the composition following topical application to skin can be quantified by in vitro measurements employing pig skin and an extensometer, in accordance with the following procedure.
Pig skin was selected for this evaluation and this was first cleaned with an aqueous ethanol-chlorohexidine solution (15 : 75 : 10:, Hibitane; ICI Pharmaceuticals). Hairs were removed by clipping followed by depilation with commercially-available thioglycolate cream (Immac : Whitehall Laboratories) and 0.4mm thick slices of skin were removed using a Davies electric skin dermatome. Stratum corneum was isolated by incubating strips of skin, dermis side down, into a solution of trypsin (0.25g% Flow Laboratories) and phosphate-buffered saline (PBS) comprising 137mM NaCl; 2.68mM KCl; 8.1mM NaHPO₄; 1.47mM KH₂PO₄ at pH 7.4 for 2-4h at 37°C. The dermis was separated from the epidermis using forceps and the latter was incubated in fresh trypsin-PBS solution overnight at 4°C. The enzyme solution was changed several times on the following day before the stratum corneum was washed with sonication (Lucas Dawe Ultrasonics; bath sonicleaner) and three changes of PBS to remove trypsin and residual cells. The corneum was then washed with distilled water containing 0.02% sodium azide (to inhibit bacterial growth) before floating onto fluorocarbon filter (Spectra-mesh; 149µ mesh). After drying at ambient temperature and humidity the sheets of corneum were cut into rectangular strips measuring 1 x 2.5cm. The pieces of corneum were mounted at each end with plastic tape (Flow tape; Flow Laboratories) and a 6mm hole was punched into the centre of each tab. During this whole procedure the orientation of the stratum corneum was maintained to ensure samples were treated on their external surfaces only in subsequent experiments. Samples were stored in petri-dishes at ambient humidity and temperature until required. […]
The extensibility of pig skin stratum corneum was measured following treatment with ω-(O-linoleoyl)ceramide having the structure (12), as herein defined. […]

Row | Structure (SMILES) | Extensibility ratio | extensibility ratio compared with hydrolysed ceramide structure (12) or linoleate (students t test, significance at the 5% level, 4µl/cm² (25ng))
1 | CCCCC/C=C\C/C=C\CCCCCCCC(=O)OCCCCCCCCCCCCCCCCCCCCCC(=O)NC(CO)C(O)C=CCCCCCCCCCCCCC (stereo not drawn) [Ceramide structure (12), ω-(O-linoleoyl)ceramide] | 2.11 ± 0.45 | significantly greater
2 | CCCCC/C=C\C/C=C\CCCCCCCC(=O)O [Linoleate, reference compound] | 1.29 ± 0.16 | 

— EP0542549A1, “Use of cosmetic composition” (UNILEVER PLC, priority 1991, dated 1993)
